Measured values from patent US20170274087A1, “SACCHARIDE ANALOGS AND AGENTS FOR THE DIAGNOSIS AND THERAPY OF BACTERIAL INFECTIONS” (Emory University, priority 2014, published 2017).
Each block holds one compound with its values, some of them ahead of it.

Tests used:
maltase = assay: in vitro
Description: The stability of thiomaltose and maltose was investigated in the presence of maltase. Thiomaltose and maltose were incubated with 10 units of maltase, which is an enzyme that breaks maltose into two glucose molecules. The hydrolysis kinetics of thiomaltose and maltose was determined by quantifying the glucose released from thiomaltose or maltose hydrolysis.

Giardia = Giardia growth assay in 96 well plates (coulter counter); assay type: cell-based; details: 48 hours, 37° C., DMSO at or below 0.1%
Description: Methods for evaluating EC50 measurements in Giardia were established. Giardia cells were cultured in 96 well microtiter plates in anaerobic BD Bio-Bags (Becton Dickinson). Growth was assayed with a MoxiZ coulter counter (Orflo Technologies). The TMM and metroinadazole stock solutions contained DMSO to improve solubility. Giardia growth in 96 well plates with various volumes of TYDK media 10 and DMSO concentrations were evaluated over several days at 37° C. Cells grew more consistently in higher volumes of media and noted reduced growth in DMSO concentrations above 0.25%. […] Growth was evaluated after 48 hours.

P. aeruginosa = P. aeruginosa growth inhibition (absorption, OD600); assay type: cell-based; details: up to a 10 μM concentration; multidrug-resistant clinical isolate
Description: TM-R and free radezolid were incubated with P. aeruginosa for 24 hours. OD600 were used to determine the bacteria growth.
P. aeruginosa (5×10^8 CFUs) were incubated with various concentrations of either radezolid or TMR and the MIC was determined via absorption measurements. The P. aeruginosa strain used in this experiment was a clinical isolate, resistant to multiple antibiotics, obtained from a blood stream infection.

- half-life (maltase): ~30 min
- maltase hydrolysis (in words) (maltase; 3 hours, 10 units of maltase): hydrolyzed completely
SMILES: OC[C@H]1O[C@H](O[C@H]2[C@H](O)[C@@H](O)[C@H](O)O[C@@H]2CO)[C@H](O)[C@@H](O)[C@@H]1O [maltose]

SMILES: Cc1ncc([N+](=O)[O-])n1CCO [metronidazole]
- EC50 (Giardia): 1.7 µM

SMILES: CC(=O)NC[C@H]1CN(c2ccc(-c3ccc(CNCc4cnn[nH]4)cc3)c(F)c2)C(=O)O1 [radezolid]
- efficacy against P. aeruginosa growth (in words) (P. aeruginosa): no efficacy

SMILES: OCC1OC(SC2C(CO)OC(O)C(O)C2O)C(O)C(O)C1O (stereo not drawn) [thiomaltose]
- hydrolyzed by maltase (maltase; 3 hours, 10 units of maltase): less than 1%
- maltase hydrolysis (in words) (maltase; 3 hours, 10 units of maltase): negligible hydrolysis
